Data as given in patent US9315496B2, “Benzopyrone derivative and use thereof” (HUAZHONG UNIVERSITY OF SCIENCE & TECHNOLOGY, priority 2011, dated 2016).
Like-named read-outs stand apart in the source and are kept apart here.

Experiments:
dopamine D2 receptor = dopamine D2 receptor (Rattus norvegicus, UniProt P61169); experiment: D2 receptor binding assay (3H-Spiperone, rat brain striatum membrane); details: for affinity for D2 receptor (in words): in vitro receptor binding assay; for inhibition at 10 µM: read-out: D2 inhibition %
Description: Rats were sacrificed by cervical dislocation on ice. Brain striatum was rapidly taken, and 2 brain striatums were combined into a centrifuge tube, to which 3 ml of buffer (0.05 M Tris-HCl buffer, containing NaCl 120 mM, KCl 5 mM, MgCl2 1 mM, CaCl2 1 mM) was added, homogenization was conducted for 3-4 s at level 4 for four times, and then 5 ml of buffer was then added. The weight of the homogenized tubes were adjusted using a balance, and centrifugation was conducted at 12000 r, 4° C. for 20 min. The supernatant was discarded, and 3 ml of buffer was added (0.05 M Tris-HCl buffer, containing NaCl 120 mM, KCl 5 mM, MgCl2 1 mM, CaCl2 1 mM). Vortex mixer was used for blending, and then 5 ml of buffer was added (0.05 M Tris-HCl buffer, containing NaCl 120 mM, KCl 5 mM, MgCl2 1 mM, CaCl2 1 mM). Centrifugation was conducted (repeated 3 times). After the centrifugations, the supernatant was discarded, and the pellets were stored at −80° C. for future use.
Beckman LS-6500 Multi-function Liquid Scintillation Counter was used.
(1) The prepared membrane was first applied with appropriate amount of homogenized liquid, and homogenizer was used for evenly dispersing. 15 tubes were mixed into a 100 ml container, and appropriate amount of homogenized liquid was added to give 50 ml of membrane suspension, which was reserved for future use.
(2) 100 μL of membrane preparation and 100 μL of buffer were added into each reaction tube.
(3) 100 μL of homogenized liquid was added into the total binding tube (TB), 100 μL of Butaclamol (final concentration 10^−5 M) was added into the non-specific binding tube (NB), and 100 μL of the test compound (final concentration 10^−5 M) was added into the specific binding tube (SB) for each compound.
(5) Each of the reaction tubes was incubated at 37° C. for 20 min. After the reaction was completed, the bound ligands were rapidly filtered under reduced pressure, and the ice-chilled assay buffer was used for adequate washing. The filter was taken out and put into a 3 ml scintillation vial, and 2 ml of toluene scintillation solution was added and blended.
(6) The scintillation vials were put into Liquid Scintillation Counter for counting. Inhibitory rate(1%)=(Total binding tube cpm−compound cpm)/(Total binding tube cpm−non-specific binding tube cpm)×100%
Each assay for the compounds was conducted in duplicate.

5-HT2A receptor = 5-HT2A receptor (Rattus norvegicus, UniProt P14842); experiment: 5HT2A receptor binding assay ([3H]-Ketanserin, rat brain striatum membrane); details: for IC50: cells marked ^a; for IC50 / inhibition at 10 µM: [3H]-Ketanserin, rat brain striatum membrane; for inhibition at 10 µM: test compound final concentration 10^−5 M, read-out: 5HT2A inhibition %
D3 receptor = target: T1, D3 receptor (Homo sapiens, UniProt P35462); experiment: D3 receptor assay ([3H]-Spiperone, HEK-293 cells); format: binding; details: for inhibition at 10 µM: final concentration 10 μmol/L, [3H]-Spiperone, HEK-293 cells; for affinity for D3 receptor (in words): in vitro receptor binding assay
T1 construct: expressed in transfected cells; host or cells: HEK-293
Description: After the cells were centrifuged at 1000 rpm for 5 min, the supernatant was discarded, and the cell pellet was collected and stored in a −20° C. fridge for reservation. It was re-suspended with Tris-Cl (pH 7.4) in the assay.
Tris was divided into aliquots by Genetimes Technology Inc.
Competitive binding test for receptors: 20 μl of each of the test compounds and 20 μl of the radioactive ligand together with 160 μl of the receptor proteins were added into the reaction tubes, and the final concentrations of the test compound and the positive drug were all 10 μmol/L. After 50 min of incubation in 30° C. water bath, the tubes were immediately moved to ice bath to terminate the reactions. GF/C glass fiber filter papers were used for rapid sucking filtration on a Millipore cell sample collector, elution buffer (50 mM Tris-HCl, PH 7.4) was applied for 3 ml×3 times, and microwave was applied for 4-5 min for drying. The filter papers were moved into 0.5 ml centrifuge tubes, and 500 μl of lipid-soluble scintillation solution was added. The tubes were allowed to stand still for over 30 min in dark, and the intensities of radioactivity were measured by a counter.

5-HT2C receptor = 5-HT2C receptor (Rattus norvegicus, UniProt P08909); experiment: 5HT2C receptor binding assay ([3H]-mesulergine, rat brain striatum membrane); details: for inhibition at 10 µM: read-out: 5HT2C inhibition %
5-HT1A receptor = target: T2, 5-HT1A receptor (Rattus norvegicus, UniProt P19327); experiment: 5HT1A receptor binding assay (3H-8-OH-DPAT, rat brain striatum membrane); details: for IC50: cells marked ^a; for IC50 / inhibition at 10 µM: 3H-8-OH-DPAT, rat brain striatum membrane; for affinity for 5-HT1A receptor (in words): in vitro receptor binding assay; for inhibition at 10 µM: test compound final concentration 10^−5 M
T2 sequence (P19327 1-422): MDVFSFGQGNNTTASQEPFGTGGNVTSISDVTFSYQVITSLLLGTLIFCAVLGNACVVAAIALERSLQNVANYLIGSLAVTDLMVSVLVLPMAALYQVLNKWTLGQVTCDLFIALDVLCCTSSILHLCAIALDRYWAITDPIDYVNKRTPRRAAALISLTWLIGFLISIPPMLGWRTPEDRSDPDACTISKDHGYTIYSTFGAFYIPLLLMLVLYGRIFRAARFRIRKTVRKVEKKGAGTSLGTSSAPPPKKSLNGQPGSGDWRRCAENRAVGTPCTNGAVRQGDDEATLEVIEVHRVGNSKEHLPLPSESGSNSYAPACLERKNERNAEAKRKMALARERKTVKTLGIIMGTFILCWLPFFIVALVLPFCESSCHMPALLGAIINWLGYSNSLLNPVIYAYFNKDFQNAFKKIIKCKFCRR
Description: Incubation at 37° C. was conducted for 10 min, the weight of the tubes were adjusted using a balance after incubation. […] Centrifugation was conducted and repeated 3 times.

in vivo = details: both, mouse, po
Description: KM mice (half male and half female) were randomly divided into several groups (with 2-5 mice in each group), which were respectively the 2000 mg/kg groups for each compound, and the solvent group. 0.2 ml/10 g were administered intragastrically. The death of the animals in 3 days were observed. (In the case 3 or more animals survived in 3 days without notable abnormity in their life states, the observation was continued until the assay was completed in 7 days. In the case 3 or more animals died in 3 days, the median lethal dose method was used to determine the LD50).
0.2 ml/10 g were administered intragastrically, and the death of the animals in 1-3 days were observed.

mice of Kunming breed = experiment: MK-801 induced high activity in mice; format: in vivo; details: for ED50: Mus musculus, 1.5 h, po, MK-801 0.1 mg/kg ip, spontaneous activity in 90 min
Description: Healthy mice of Kunming breed (with half male and half female, (20±2)g) were provided by Qinglongshan Animal Cultivation Center, Nanjing.
Subsequently, the spontaneous activities of the mice of each group in 90 min were measured.

KM mice = experiment: Apomorphine induced clambering assay of mice; format: in vivo; details: for ED50: Mus musculus, po, apomorphine 1 mg/kg sc
Description: Healthy KM mice (male, with body weight of 18-22 g) were provided by Qinglongshan Animal Cultivation Center, Nanjing.
Test positive drugs: haloperidol, clozapine, risperidone, olanzapine, aripiprazole, ziprasidone, quetiapine.
Apomorphine provided by Sigma Company was dissolved in 0.9% NaCl (containing 0.1% vitamin C) before use, and was freshly formulated before use.
Corresponding solvent double-distilled water was administered intragastrically to the negative control group and the model group, corresponding positive drugs were administered intragastrically to the positive drug groups (a small amount of acetic acid was first added and then double-distilled water was added when dissolving), and corresponding dosages of compounds were administered intragastrically to the compound groups for each dosage, with the volume for intragastric administration as 0.1 ml/10 g. 1 hour after the intragastric administration, apomorphine was subcutaneously injected (1 mg/kg), with the volume as 0.1 ml/10 g. After the injection of apomorphine, the mice were immediately put into the clambering cages. After 5 min of adaptation, the behaviors of the mice at 10-11, 20-21, and 30-31 min after the injection of apomorphine were observed and scored. Scoring criteria: 4 paws on the floor was scored as 0; 2 forepaws on the cage was scored as 1; and 4 paws on the cage was scored as 2.

Catalepsy assay = format: in vivo; details: both sexes, Kunming (KM), mouse, in vivo; mice, po
Description: Healthy mice of Kunming breed (with half male and half female, (22±2)g) were provided by Qinglongshan Animal Cultivation Center, Nanjing.
Instruments: self-made bar-grabbing apparatus: stainless steel bar in mice box, which was 0.3 cm in diameter and […].
Corresponding solvent double-distilled water was administered intragastrically to the negative control group and the model group, corresponding positive drugs were administered intragastrically to the positive drug groups (a small amount of acetic acid was first added and then double-distilled water was added when dissolving), and corresponding dosages of compounds were administered intragastrically to the compound groups for each dosage, with the volume for intragastric administration as 0.1 ml/10 g. At 30 min, 60 min, 90 min after the intragastric administration, the two forepaws of the mice were gently placed on the bars (which were 20 cm in length, 0.3 cm in diameter, and 5.5 cm above the bench), and the hindpaws of the animals were placed on the bottom of the box. The durations for the mice to maintain the posture with the two forepaws on the bars were recorded, and 30 s of spasticity without moving was considered as the positive response. In the case the forepaws of the mice were not put down persistently, the observation was terminated at 60 s. The numbers of animals with positive response in each of the compound dosage groups were counted.

[1] = test compound final concentration 10^−5 M, [3H]-mesulergine, rat brain striatum membrane
[2] = in vitro receptor binding assay

T1 sequence (P35462 whole entry): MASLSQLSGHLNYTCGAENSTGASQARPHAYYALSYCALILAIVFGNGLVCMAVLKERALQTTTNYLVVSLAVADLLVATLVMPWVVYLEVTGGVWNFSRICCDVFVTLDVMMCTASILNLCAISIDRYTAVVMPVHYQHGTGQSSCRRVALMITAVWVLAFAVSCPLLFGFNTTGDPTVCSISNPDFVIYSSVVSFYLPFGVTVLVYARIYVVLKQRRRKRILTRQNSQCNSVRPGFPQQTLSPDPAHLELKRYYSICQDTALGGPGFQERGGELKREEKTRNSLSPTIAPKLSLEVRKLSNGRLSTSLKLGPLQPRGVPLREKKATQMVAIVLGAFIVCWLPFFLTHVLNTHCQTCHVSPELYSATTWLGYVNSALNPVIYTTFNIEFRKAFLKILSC
Sequence of 5-HT2A receptor (P14842 whole entry): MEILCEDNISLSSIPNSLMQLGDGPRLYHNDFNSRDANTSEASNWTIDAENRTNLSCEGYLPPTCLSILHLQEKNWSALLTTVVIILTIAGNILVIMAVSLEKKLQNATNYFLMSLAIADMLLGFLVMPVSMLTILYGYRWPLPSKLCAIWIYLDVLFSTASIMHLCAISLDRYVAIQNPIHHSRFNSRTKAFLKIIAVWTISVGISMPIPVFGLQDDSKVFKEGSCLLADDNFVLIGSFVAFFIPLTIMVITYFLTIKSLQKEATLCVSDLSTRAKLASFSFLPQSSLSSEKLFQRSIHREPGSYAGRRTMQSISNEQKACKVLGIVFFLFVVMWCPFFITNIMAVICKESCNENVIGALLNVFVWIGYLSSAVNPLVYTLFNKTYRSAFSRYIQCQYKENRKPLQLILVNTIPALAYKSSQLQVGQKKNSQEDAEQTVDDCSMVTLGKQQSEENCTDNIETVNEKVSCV
Sequence of 5-HT2C receptor (P08909 33-460): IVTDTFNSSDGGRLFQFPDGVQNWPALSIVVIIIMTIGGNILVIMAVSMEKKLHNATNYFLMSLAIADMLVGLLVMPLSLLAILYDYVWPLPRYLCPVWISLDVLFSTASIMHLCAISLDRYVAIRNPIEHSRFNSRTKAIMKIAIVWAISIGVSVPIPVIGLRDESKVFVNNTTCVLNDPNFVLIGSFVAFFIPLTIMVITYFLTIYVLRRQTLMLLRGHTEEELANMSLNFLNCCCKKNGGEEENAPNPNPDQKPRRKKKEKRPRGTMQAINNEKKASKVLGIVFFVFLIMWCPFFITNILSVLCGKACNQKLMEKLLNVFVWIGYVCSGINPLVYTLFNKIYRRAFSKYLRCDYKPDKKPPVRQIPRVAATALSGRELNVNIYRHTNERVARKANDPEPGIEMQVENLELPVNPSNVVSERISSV
Sequence of dopamine D2 receptor (P61169 whole entry): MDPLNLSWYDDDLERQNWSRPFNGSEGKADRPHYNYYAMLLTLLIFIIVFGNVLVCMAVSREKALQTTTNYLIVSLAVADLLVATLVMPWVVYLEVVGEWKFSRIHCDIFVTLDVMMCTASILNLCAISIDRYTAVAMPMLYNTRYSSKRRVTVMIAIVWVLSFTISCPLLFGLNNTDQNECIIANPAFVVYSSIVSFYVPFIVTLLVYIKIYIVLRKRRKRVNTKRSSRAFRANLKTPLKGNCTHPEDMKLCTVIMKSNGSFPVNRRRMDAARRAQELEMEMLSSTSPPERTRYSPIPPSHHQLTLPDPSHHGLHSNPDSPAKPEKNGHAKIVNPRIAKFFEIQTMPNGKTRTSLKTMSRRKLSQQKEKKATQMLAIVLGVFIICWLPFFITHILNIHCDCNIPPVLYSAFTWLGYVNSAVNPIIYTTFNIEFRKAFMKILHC

O=c1cc(C(F)(F)F)c2ccc(OCCCCN3CCN(c4nsc5ccccc45)CC3)cc2o1 [Compound 18, 7-(4-(4-(3-(1,2-benzisothiazole)-1-piperazinyl)-n-butoxy))-4-(trifluoromethyl)-2H-benzopyran-2-one]
affinity for D2 receptor (in words) (dopamine D2 receptor): relatively stronger affinities
inhibition at 10 µM (dopamine D2 receptor): 113%
affinity for 5-HT2A receptor (in words) (5-HT2A receptor): relatively stronger affinities
IC50 (5-HT2A receptor): 0.79 nM
melting point: 93 to 95 °C
inhibition at 10 µM (D3 receptor): 103%
affinity for D3 receptor (in words) (D3 receptor): relatively stronger affinities
affinity for 5-HT2C receptor (in words) (5-HT2C receptor): lower affinities
inhibition at 10 µM (5-HT2C receptor; [1]): 77.6%
IC50 (5-HT1A receptor): 6.19 nM
affinity for 5-HT1A receptor (in words) (5-HT1A receptor): relatively stronger affinities

Cc1nc2n(c(=O)c1CCN1CCC(c3noc4cc(F)ccc34)CC1)CCCC2 [risperidone, reference compound]
LD50 (in vivo): 82.1 mg/kg
improvement of MK-801 induced high activity (in words) (mice of Kunming breed; compared to the model group): significantly improve
improvement of apomorphine induced clambering symptoms (in words) (KM mice): effectively improve
ED50 (KM mice): 0.015 mg/kg

Cc1cc(=O)oc2cc(OCCCN3CCC(c4noc5cc(F)ccc45)CC3)ccc12 [Compound 7, 7-(3-(4-(3-(6-fluoro-benzisoxazole)-1-piperidyl)-n-propoxy))-4-methyl-2H-benzopyran-2-one]
affinity for D2 receptor (in words) (dopamine D2 receptor): relatively stronger affinities
inhibition at 10 µM (dopamine D2 receptor): 103%
ED50 (Catalepsy assay): 1.5 mg/kg
IC50 (5-HT2A receptor): 0.69 nM
affinity for 5-HT2A receptor (in words) (5-HT2A receptor; [2]): relatively stronger affinities
LD50 (in vivo): 1000 to 2000 mg/kg
ED50 (mice of Kunming breed): 0.27 mg/kg
inhibition at 10 µM (D3 receptor): 101%
affinity for D3 receptor (in words) (D3 receptor): relatively stronger affinities
affinity for 5-HT2C receptor (in words) (5-HT2C receptor; [2]): lower affinities
inhibition at 10 µM (5-HT2C receptor): 82%
ED50 (KM mice): 0.15 mg/kg
IC50 (5-HT1A receptor): 5.95 nM
affinity for 5-HT1A receptor (in words) (5-HT1A receptor): relatively stronger affinities

Cc1cc(=O)oc2cc(OCCCCN3CCC(c4noc5cc(F)ccc45)CC3)ccc12 [Compound 6, 7-(4-(4-(3-(6-fluoro-benzisoxazole)-1-piperidyl)-n-butoxy))-4-methyl-2H-benzopyran-2-one]
affinity for D2 receptor (in words) (dopamine D2 receptor): relatively stronger affinities
inhibition at 10 µM (dopamine D2 receptor): 101%
ED50 (Catalepsy assay): 0.68 mg/kg
IC50 (5-HT2A receptor): 0.39 nM
affinity for 5-HT2A receptor (in words) (5-HT2A receptor; [2]): relatively stronger affinities
LD50 (in vivo): > 2000 mg/kg
ED50 (mice of Kunming breed): 0.32 mg/kg
inhibition at 10 µM (D3 receptor): 100%
affinity for D3 receptor (in words) (D3 receptor): relatively stronger affinities
affinity for 5-HT2C receptor (in words) (5-HT2C receptor; [2]): lower affinities
inhibition at 10 µM (5-HT2C receptor): 91.4%
ED50 (KM mice): 0.11 mg/kg
IC50 (5-HT1A receptor): 3.52 nM
affinity for 5-HT1A receptor (in words) (5-HT1A receptor): relatively stronger affinities

O=c1cc(-c2ccccc2)c2ccc(OCCCN3CCN(c4nsc5ccccc45)CC3)cc2o1 [Compound 12, 7-(3-(4-(3-(1,2-benzisothiazole)-1-piperazinyl)-n-propoxy))-4-phenyl-2H-benzopyran-2-one]
affinity for D2 receptor (in words) (dopamine D2 receptor): relatively stronger affinities
inhibition at 10 µM (dopamine D2 receptor): 124%
affinity for 5-HT2A receptor (in words) (5-HT2A receptor): relatively stronger affinities
IC50 (5-HT2A receptor): 9.26 nM
inhibition at 10 µM (D3 receptor): 103%
affinity for D3 receptor (in words) (D3 receptor): relatively stronger affinities
affinity for 5-HT2C receptor (in words) (5-HT2C receptor): lower affinities
inhibition at 10 µM (5-HT2C receptor; [1]): 93.4%
IC50 (5-HT1A receptor): 127 nM
affinity for 5-HT1A receptor (in words) (5-HT1A receptor): relatively stronger affinities

Cc1cc2c(s1)Nc1ccccc1N=C2N1CCN(C)CC1 [olanzapine, reference compound]
ED50 (KM mice): 0.11 mg/kg

Cc1cc(=O)oc2c(Cl)c(OCCCN3CCN(c4nsc5ccccc45)CC3)ccc12 [Compound 22, 7-(3-(4-(3-(1,2-benzisothiazole)-1-piperazinyl)-n-propoxy))-4-methyl-8-chloro-2H-benzopyran-2-one]
affinity for D2 receptor (in words) (dopamine D2 receptor): relatively stronger affinities
inhibition at 10 µM (dopamine D2 receptor): 112%
affinity for 5-HT2A receptor (in words) (5-HT2A receptor): relatively stronger affinities
IC50 (5-HT2A receptor): 6.88 nM
melting point: 162 to 164 °C
inhibition at 10 µM (D3 receptor): 104%
affinity for D3 receptor (in words) (D3 receptor): relatively stronger affinities
affinity for 5-HT2C receptor (in words) (5-HT2C receptor): lower affinities
inhibition at 10 µM (5-HT2C receptor; [1]): 99.8%
IC50 (5-HT1A receptor): 12.8 nM
affinity for 5-HT1A receptor (in words) (5-HT1A receptor): relatively stronger affinities

O=c1cc(C(F)(F)F)c2ccc(OCCCN3CCC(c4noc5cc(F)ccc45)CC3)cc2o1 [Compound 15, 7-(3-(4-(3-(6-fluoro-benzisoxazole)-1-piperidyl)-n-propoxy))-4-(trifluoromethyl)-2H-benzopyran-2-one]
inhibition at 10 µM (dopamine D2 receptor): 94.6%
inhibition at 10 µM (5-HT2A receptor): 83.3%
melting point: 146 to 148 °C
inhibition at 10 µM (5-HT1A receptor): 107%

CCCc1cc(=O)oc2cc(OCCCCN3CCC(c4noc5cc(F)ccc45)CC3)ccc12 [Compound 25, 7-(4-(4-(3-(6-fluoro-benzisoxazole)-1-piperidyl)-n-butoxy))-4-n-propyl-2H-benzopyran-2-one]
inhibition at 10 µM (dopamine D2 receptor): 70.7%
inhibition at 10 µM (5-HT2A receptor): 40.2%
melting point: 139 to 141 °C
inhibition at 10 µM (5-HT1A receptor): 84.5%

Cc1cc(=O)oc2cc(OCCCCN3CCN(c4nsc5ccccc45)CC3)ccc12 [Compound 5, 7-(4-(4-(3-(1,2-benzisothiazole)-1-piperazinyl)-n-butoxy))-4-methyl-2H-benzopyran-2-one]
inhibition at 10 µM (dopamine D2 receptor): 88.5%
inhibition at 10 µM (5-HT2A receptor): 104%
melting point: 110 to 112 °C
inhibition at 10 µM (5-HT1A receptor): 114%
